Test results: ChEMBL document CHEMBL5725651, “Guanine analogs as telomerase substrates and telomere length affectors” (2018)
pEC50: −log10 of the molar value.

Assay: HT3 cells were treated for three days with increasing concentrations of PMPG-diisopropyloxy ester ranging from 0.2 μM to 20 μM. Cells (HT3 RPMI+10% PBS) were incubated with compound for 24 hr after which PSTS primer (phosphorothioate-d(AATCCGTCGAGCAGAGTT (SEQ ID NO: 6) containing a 5′ Cy-5 label) (7.5 μM) and fresh compound are added for an additional 24 hr. Cells were lysed and endogenous telomerase inactivated by heating (15 min, 75° C.). Products were amplified by 30 cycles of PCR under TRAP conditions set forth above and quantified.
Conditions: HT-3

Row | SMILES | pEC50
1 | C=C(COCP(=O)(OCOC(=O)OC(C)C)OCOC(=O)OC(C)C)Cn1cnc2c(=O)[nH]c(N)nc21 | 4.96
2 | CC(C)OC(=O)OCOP(=O)(COC(C)Cn1cnc2c(=O)[nH]c(N)nc21)OCOC(=O)OC(C)C (configuration not stated) | 5.67
